Data taken from PubChem BioAssay (NCI).
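At the GI50, growth is halved. Definition used: TGI = concentration required for complete inhibition of growth.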

Key:
Test in all cases: growth of human tumour cells (NCI), 384-well format
786-0 renal = system: 786-0 renal
A498 renal = system: A498 renal
A549 NSCLC = system: A549 NSCLC
ACHN renal = system: ACHN renal
COLO 205 colon = system: COLO 205 colon
DU-145 prostate = system: DU-145 prostate
EKVX NSCLC = system: EKVX NSCLC
HCC-2998 colon = system: HCC-2998 colon
HCT-116 colon = system: HCT-116 colon
HCT-15 colon = system: HCT-15 colon
HOP-92 NSCLC = system: HOP-92 NSCLC
HT29 colon = system: HT29 colon
IGROV1 ovarian = system: IGROV1 ovarian
K-562 leukemia = system: K-562 leukemia
KM12 colon = system: KM12 colon
M14 melanoma = system: M14 melanoma
MALME-3M melanoma = system: MALME-3M melanoma
MCF7 breast = system: MCF7 breast
MDA-MB-231 breast = system: MDA-MB-231 breast
MDA-MB-435 melanoma = system: MDA-MB-435 melanoma
MDA-MB-468 breast = system: MDA-MB-468 breast
MOLT-4 leukemia = system: MOLT-4 leukemia
NCI-H226 lung = system: NCI-H226 lung
NCI-H23 lung = system: NCI-H23 lung
NCI-H322M lung = system: NCI-H322M lung
NCI-H460 NSCLC = system: NCI-H460 NSCLC
NCI-H522 lung = system: NCI-H522 lung
OVCAR-4 ovarian = system: OVCAR-4 ovarian
OVCAR-8 ovarian = system: OVCAR-8 ovarian
PC-3 prostate = system: PC-3 prostate
RPMI-8226 leukemia = system: RPMI-8226 leukemia
RXF 393 renal = system: RXF 393 renal
SF-295 CNS = system: SF-295 CNS
SF-539 CNS = system: SF-539 CNS
SK-MEL-2 melanoma = system: SK-MEL-2 melanoma
SK-MEL-28 melanoma = system: SK-MEL-28 melanoma
SK-MEL-5 melanoma = system: SK-MEL-5 melanoma
SK-OV-3 ovarian = system: SK-OV-3 ovarian
SN12C renal = system: SN12C renal
SNB-19 CNS = system: SNB-19 CNS
SNB-75 CNS = system: SNB-75 CNS
SR leukemia = system: SR leukemia
SW-620 colon = system: SW-620 colon
T-47D breast = system: T-47D breast
TK-10 renal = system: TK-10 renal
U251 glioblastoma = system: U251 glioblastoma
UACC-257 melanoma = system: UACC-257 melanoma

For O=C(c1cc(Cc2n[nH]c(=O)c3ccccc23)ccc1F)N1CCN(C(=O)C2CC2)CC1, the GI50 ([…]-0 renal) was greater than 100 µM, the TGI (786-0 renal) was greater than 100 µM and the GI50 (A498 renal) was greater than 100 µM. It also gave a TGI (A498 renal) greater than 100 µM, a GI50 (A549 NSCLC) of 44.9 µM and a TGI (A549 NSCLC) greater than 100 µM. It also gave a GI50 (ACHN renal) greater than 81.8 µM, a TGI (ACHN renal) greater than 100 µM and a GI50 (COLO 205 colon) greater than 77 µM. The TGI (COLO 205 colon) was greater than 100 µM, the GI50 (DU-145 prostate) was 53.5 µM and the TGI (DU-145 prostate) was greater than 100 µM. It also gave a GI50 (EKVX NSCLC) of 97.7 µM, a TGI (EKVX NSCLC) greater than 100 µM and a GI50 (HCC-2998 colon) greater than 29.2 µM. It also gave a TGI (HCC-2998 colon) greater than 100 µM, a GI50 (HCT-116 colon) of 8.27 µM and a TGI (HCT-116 colon) greater than 100 µM. It also gave a GI50 (HCT-15 colon) greater than 100 µM, a TGI (HCT-15 colon) greater than 100 µM and a GI50 (HOP-92 NSCLC) of 57.3 µM. For the same compound, the TGI (HOP-92 NSCLC) was greater than 100 µM, the GI50 (HT29 colon) was greater than 100 µM and the TGI (HT29 colon) was greater than 100 µM. The GI50 (IGROV1 ovarian) was greater than 62.7 µM, the TGI (IGROV1 ovarian) was greater than 100 µM and the GI50 (K-562 leukemia) was 33.5 µM. It also gave a TGI (K-562 leukemia) greater than 100 µM, a GI50 (KM12 colon) greater than 100 µM and a TGI (KM12 colon) greater than 100 µM. The GI50 (M14 melanoma) was greater than 91.5 µM, the TGI (M14 melanoma) was greater than 100 µM and the GI50 (MALME-3M melanoma) was greater than 100 µM. The TGI (MALME-3M melanoma) was greater than 100 µM, the GI50 (MCF7 breast) was 28.6 µM and the TGI (MCF7 breast) was greater than 100 µM. The GI50 (MDA-MB-231 breast) was greater than 61.1 µM, the TGI (MDA-MB-231 breast) was greater than 100 µM and the GI50 (MDA-MB-435 melanoma) was greater than 100 µM. It also gave a TGI (MDA-MB-435 melanoma) greater than 100 µM, a GI50 (MDA-MB-468 breast) of 3.76 µM and a TGI (MDA-MB-468 breast) of 16.7 µM. It also gave a GI50 (MOLT-4 leukemia) of 1.43 µM, a TGI (MOLT-4 leukemia) of 3.03 µM and a GI50 (NCI-H226 lung) of 34.5 µM. It also gave a TGI (NCI-H226 lung) greater than 100 µM, a GI50 (NCI-H23 lung) of 16.3 µM and a TGI (NCI-H23 lung) greater than 100 µM. It also gave a GI50 (NCI-H322M lung) greater than 100 µM, a TGI (NCI-H322M lung) greater than 100 µM and a GI50 (NCI-H460 NSCLC) of 5.78 µM. The TGI (NCI-H460 NSCLC) was greater than 100 µM, the GI50 (NCI-H522 lung) was 51.7 µM and the TGI (NCI-H522 lung) was greater than 100 µM. The GI50 (OVCAR-4 ovarian) was greater than 80.3 µM, the TGI (OVCAR-4 ovarian) was greater than 100 µM and the GI50 (OVCAR-8 ovarian) was 22 µM. The TGI (OVCAR-8 ovarian) was greater than 100 µM, the GI50 (PC-3 prostate) was greater than 100 µM and the TGI (PC-3 prostate) was greater than 100 µM. The GI50 (RPMI-8226 leukemia) was 12.7 µM, the TGI (RPMI-8226 leukemia) was greater than 100 µM and the GI50 (RXF 393 renal) was greater than 37.6 µM. For the same compound, the TGI (RXF 393 renal) was greater than 79.6 µM, the GI50 (SF-295 CNS) was 4.68 µM and the TGI (SF-295 CNS) was greater than 37.3 µM. For the same compound, the GI50 (SF-539 CNS) was 11.8 µM, the TGI (SF-539 CNS) was greater than 100 µM and the GI50 (SK-MEL-2 melanoma) was greater than 100 µM. For the same compound, the TGI (SK-MEL-2 melanoma) was greater than 100 µM, the GI50 (SK-MEL-28 melanoma) was greater than 100 µM and the TGI (SK-MEL-28 melanoma) was greater than 100 µM. For the same compound, the GI50 (SK-MEL-5 melanoma) was 35 µM, the TGI (SK-MEL-5 melanoma) was greater than 73.1 µM and the GI50 (SK-OV-3 ovarian) was greater than 55.5 µM. The TGI (SK-OV-3 ovarian) was greater than 100 µM, the GI50 (SN12C renal) was greater than 100 µM and the TGI (SN12C renal) was greater than 100 µM. The GI50 (SNB-19 CNS) was 99.2 µM, the TGI (SNB-19 CNS) was greater than 100 µM and the GI50 (SNB-75 CNS) was 22.5 µM. For the same compound, the TGI (SNB-75 CNS) was greater than 95.9 µM, the GI50 (SR leukemia) was 1.37 µM and the TGI (SR leukemia) was 3.38 µM. The GI50 (SW-620 colon) was greater than 35 µM, the TGI (SW-620 colon) was greater than 100 µM and the GI50 (T-47D breast) was 34.8 µM. It also gave a TGI (T-47D breast) greater than 100 µM, a GI50 (TK-10 renal) greater than 100 µM and a TGI (TK-10 renal) greater than 100 µM. The GI50 (U251 glioblastoma) was 27.3 µM, the TGI (U251 glioblastoma) was greater than 100 µM and the GI50 (UACC-257 melanoma) was greater than 100 µM. The TGI (UACC-257 melanoma) was greater than 100 µM.
